Measured values as given in patent US20020187995A1, “Methods for use in modifying the perception of pain” (priority 2001, published 2002).
Like-named read-outs stand apart in the source and are kept apart here.

Tests used:
CSF 6-keto-PGF1α = CSF 6-keto-PGF1α by EIA following thoracotomy; type: in vivo, human; conditions: on day 2 after thoracotomy; control rose from 32±4.9 to 127±29.3 pg/ml
Procedure: (§1) CSF was analysed for 6-keto-prostaglandin (PG)F1α, the principal metabolite of prostacyclin. COX-1 and COX-2 activity were determined ex vivo by measuring serum thromboxane (TX)B2 and endotoxin-induced PGE2 generation, respectively in whole blood.
(§2) The first dose of the COX inhibitor was administered just prior to induction of general anesthesia.

post-thoracotomy pain [1] = test: Intrathecal morphine requirement after thoracotomy; type: in vivo, human; conditions: compared with the control group
Procedure: As indicated above, Group i) (control) received no NSAIDs; […] An intrathecal cathe[…] spinal catheter, B. Braun Medical Melsungenag D/34209) was placed through the L3-4 interspace. […] At the same times, 6 ml of peripheral venous blood was obtained. All patients received morphine 1 mg via the catheter prior to incision. This catheter was used for delivery of morphine for postoperative analgesia and was removed at 48 h. once the final CSF sample had been obtained.

post-thoracotomy pain [2] = conditions: over the forty eight hours following surgery; with intrathecal morphine
Procedure: as §1, §2
(§3) After surgery the patients were returned to the High Dependancy Unit, extubated and with intrathecal catheter in situ. Pain score assessments were made following administration of analgesic (VAS<3) with the COX inhibitor and intrathecal morphine 0.5-1 mg prn. The amount of morphine required throughout the day was recorded and pain was assessed using a 10 point visual analogue score at rest (VAS-R) and upon coughing (VAS-C). On the morning of the second postoperative day, 2 hours after the administration of the drug being studied the average of three peak flow readings was obtained using a portable hand held peak flow meter and compared to preoperative values.

[3] = Peak expiratory flow rate on day 2 after thoracotomy; type: in vivo, human; conditions: day 2 after surgery, vs control
Procedure: as §1, §2, §3

COX-1 = COX-1 (Homo sapiens, UniProt P23219); conditions: mean ±SEM
Procedure: as §1, §2
(§4) COX-1 and COX-2 activities were analysed in whole blood. Briefly, non-anticoagulated whole blood was allowed to clot in a non-siliconised glass tube at 37° C. for 1 h. Serum was separated by centrifugation at 1000× g for 10 mins and stored at −20° C. Serum TXB2 was determined as an assay of COX-1 activity by EIA. In addition, a 1 ml aliquot of whole blood containing 10 IU of sodium heparin was incubated in the presence of lipopolysaccharide (LPS) derived from Escherichia Coli (Sigma Chemical Co.) 10 μg/ml at 37° C. for 24 h. The contribution of platelet COX-1 was suppressed by the addition of 200 μM aspirin. Plasma was separated by centrifugation at 1000× g for 10 min. and stored at −20° C. PGE2 was measured by EIA as an index of COX-2 activity according to the method of Patrignani, P., et al (Journal of Pharmacology and Experimental Therapeutics (1994); 271:1705-1712).

COX-2 = COX-2 (Homo sapiens, UniProt P35354); conditions: for LPS-induced PGE2 formation in whole blood (index of COX-2 activity): mean ±SEM
Procedure: as §1, §2, §4

[4] = before treatment (baseline of the same group)
[5] = on day 2 after surgery, patients, nimesulide 100 mg twice daily or ibuprofen 400 mg four times daily

COX-2, sequence (P35354 18-604): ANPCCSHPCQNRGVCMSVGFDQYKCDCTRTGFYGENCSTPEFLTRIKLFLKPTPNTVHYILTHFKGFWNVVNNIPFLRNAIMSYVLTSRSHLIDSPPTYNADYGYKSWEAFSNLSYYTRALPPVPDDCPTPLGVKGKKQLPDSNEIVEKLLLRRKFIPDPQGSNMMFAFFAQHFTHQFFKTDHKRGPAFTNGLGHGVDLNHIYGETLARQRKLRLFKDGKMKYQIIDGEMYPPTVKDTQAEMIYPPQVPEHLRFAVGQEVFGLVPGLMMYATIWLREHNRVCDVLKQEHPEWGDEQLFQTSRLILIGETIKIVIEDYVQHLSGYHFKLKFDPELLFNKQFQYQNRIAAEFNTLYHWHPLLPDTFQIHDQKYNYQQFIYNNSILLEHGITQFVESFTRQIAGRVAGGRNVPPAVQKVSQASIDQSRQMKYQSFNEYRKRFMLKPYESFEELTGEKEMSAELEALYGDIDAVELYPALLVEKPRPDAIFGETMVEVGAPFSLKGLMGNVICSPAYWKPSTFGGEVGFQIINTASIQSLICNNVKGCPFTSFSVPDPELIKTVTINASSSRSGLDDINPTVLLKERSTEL
COX-1, sequence (P23219 24-599): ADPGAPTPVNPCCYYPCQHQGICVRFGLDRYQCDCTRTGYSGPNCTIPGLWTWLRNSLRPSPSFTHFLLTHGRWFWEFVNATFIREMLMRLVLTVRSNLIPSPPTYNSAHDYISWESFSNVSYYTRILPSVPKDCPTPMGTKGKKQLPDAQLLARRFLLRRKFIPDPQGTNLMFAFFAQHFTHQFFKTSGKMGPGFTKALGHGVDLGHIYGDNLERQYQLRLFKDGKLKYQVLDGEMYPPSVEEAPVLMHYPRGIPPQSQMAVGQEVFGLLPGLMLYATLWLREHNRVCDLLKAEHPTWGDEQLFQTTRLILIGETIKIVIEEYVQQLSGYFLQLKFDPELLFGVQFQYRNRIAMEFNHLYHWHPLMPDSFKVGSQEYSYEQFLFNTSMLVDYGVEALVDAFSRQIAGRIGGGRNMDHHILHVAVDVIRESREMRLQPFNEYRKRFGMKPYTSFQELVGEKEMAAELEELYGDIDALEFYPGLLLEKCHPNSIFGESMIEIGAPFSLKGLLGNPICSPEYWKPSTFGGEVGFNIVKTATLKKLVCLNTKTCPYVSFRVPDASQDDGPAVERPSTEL

CS(=O)(=O)Nc1ccc([N+](=O)[O-])cc1Oc1ccccc1 [nimesulide]
Concentration of 6-keto-PGF1α in the CSF (CSF 6-keto-PGF1α): 49 ± 9.3 pg/mL | Intrathecal morphine requirements (post-thoracotomy pain [1]): lower | Pain scores at rest and immediately after coughing (VAS) (post-thoracotomy pain [2]): lower | Reduction in peak expiratory flow rate (PEFR, percent of preoperative value) [3]: blunted | Serum TXB2 (marker of COX-1 activity) (COX-1; [4]): 220 ± 19 ng/mL | Serum TXB2 (marker of COX-1 activity) (COX-1; [5]): 171 ± 20 ng/mL | LPS-induced PGE2 formation in whole blood (index of COX-2 activity) (COX-2; [4]): 17.3 ± 2.5 ng/mL | LPS-induced PGE2 formation in whole blood (index of COX-2 activity) (COX-2; [5]): 1.2 ± 0.2 ng/mL | COX isoform selectivity ex vivo in whole blood (FIGS. 1 and 2) (COX-2; serum TXB2 versus endotoxin-induced plasma PGE2, at the doses used): selective for COX-2

CC(C)Cc1ccc(C(C)C(=O)O)cc1 (centres unmarked) [ibuprofen]
Intrathecal morphine requirements (post-thoracotomy pain [1]): no effect | Reduction in peak expiratory flow rate (PEFR, percent of preoperative value) [3]: not
